Tested on: live 4T1 tumor cells
Experiment: Serum IgG antibody binding to live 4T1 tumor cells
Format: in vivo, mice
Details: inactivated 4T1 vaccine day 1 and 14; serum 1:1000 dilution
Procedure: The vaccines were given subcutaneously in equal volumes in both the left and right forelimb of the mice, close to the foot. Mice received 1.7×10^6 cells per mouse per vaccine. Vaccines were given on day 1 and then again on day 14. Mice were euthanized 8 days after the booster vaccine was given and spleen and blood was collected. The serum from these mice was screened against live 4T1 tumor cells for IgG antibody binding by incubating serum with the cells at either a 1:500 or a 1:1000 dilution, staining with a fluorescently-labeled donkey anti-mouse secondary antibody, then subtracting out the background staining (normal mouse serum at 1:500 and 1:1000).

Question: For `CC(C)Cn1cnc2c(N)nc3ccccc3c21` [Imiquimod, imiquimod], which “serum IgG binding to live 4T1 cells (staining)” value is on record?
Answer: variable amounts
